Values of other authors, collected in patent US11304932B2, “Diaryl and arylheteroaryl urea derivatives as modulators of the 5-HT2A serotonin receptor useful for the prophylaxis and treatment of hallucinations associated with a neurodegenerative disease” (Axovant Sciences GmbH, priority 2015, dated 2022).

How the values were obtained:
[1] = clozapine at low dose

CC(C)COc1ccc(CNC(=O)N(Cc2ccc(F)cc2)C2CCN(C)CC2)cc1 [pimavanserin, N-(4-fluorophenylmethyl)-N-(1-methylpiperidin-4-yl)-N′-(4-(2-methylpropyloxy)phenylmethyl)carbamide]
efficacy in psychotic symptoms associated with Parkinson's Disease [1]: demonstrate efficacy

COc1ccc(NC(=O)Nc2ccc(F)cc2F)cc1-c1c(Br)cnn1C [Nelotanserin, 1-[3-(4-bromo-2-methyl-2H-pyrazol-3-yl)-4-methoxy-phenyl]-3-(2,4-difluoro-phenyl)-urea]
tolerability and PK/PD profile (daily dose of 80 mg, studies completed to date): favorable tolerability and PK/PD profile | safety and tolerability profile (previous clinical studies to date, proposed dose range): acceptable safety and tolerability profile
